Test results as given in patent US8895474B2, “Herbicidally active cyclopentanediones and derivatives thereof, and their use in controlling weeds” (Syngenta Limited, priority 2009, dated 2014).

Key:
Type in all cases: in vivo
Conditions in all cases: 312 h, rate 250 g/ha, evaluated after 13 days, 100=total damage to plant, 0=no damage to plant
[1] = tested on: Avena fatua (AVEFA); test: Post-emergence herbicidal activity, glasshouse pot test
Description: (§1) Seeds of a variety of test species were sown in standard soil in pots. After cultivation for one day (pre-emergence) or after 8 days cultivation (post-emergence) under controlled conditions in a glasshouse (at 24/16° C., day/night; 14 hours light; 65% humidity), the plants were sprayed with an aqueous spray solution derived from the formulation of the technical active ingredient in acetone/water (50:50) solution containing 0.5% Tween 20 (polyoxyethelyene sorbitan monolaurate, CAS RN 9005-64-5). The test plants were then grown in a glasshouse under controlled conditions in a glasshouse (at 24/16° C., day/night; 14 hours light; 65% humidity) and watered twice daily. After 13 days for pre and post-emergence, the test was evaluated (100=total damage to plant; 0=no damage to plant). Test Plants: Lolium perenne (LOLPE), Alopecurus myosuroides (ALOMY), Echinochloa crus-galli (ECHCG), and Avena fatua (AVEFA). Post-Emergence Activity

[2] = tested on: Lolium perenne (LOLPE); test: as above
Description: as §1

[3] = tested on: Alopecurus myosuroides (ALOMY); test: as above
Description: as §1

[4] = tested on: Echinochloa crus-galli (ECHCG); test: as above
Description: as §1

[5] = tested on: Avena fatua (AVEFA); test: Pre-emergence herbicidal activity, glasshouse pot test
Description: as §1, with “Pre-Emergence” for “Post-Emergence”

[6] = tested on: Lolium perenne (LOLPE); test: as above
Description: as §1, with “Pre-Emergence” for “Post-Emergence”

[7] = tested on: Alopecurus myosuroides (ALOMY); test: as above
Description: as §1, with “Pre-Emergence” for “Post-Emergence”

[8] = tested on: Echinochloa crus-galli (ECHCG); test: as above
Description: as §1, with “Pre-Emergence” for “Post-Emergence”

| Compound | pest or weed control at 250 g/ha [1] | pest or weed control at 250 g/ha [2] | pest or weed control at 250 g/ha [3] | pest or weed control at 250 g/ha [4] | pest or weed control at 250 g/ha [5] | pest or weed control at 250 g/ha [6] | pest or weed control at 250 g/ha [7] | pest or weed control at 250 g/ha [8] |
| --- | --- | --- | --- | --- | --- | --- | --- | --- |
| CCc1ccc(Oc2ccc(Br)cc2Cl)cc1C1=C(O)[C@H]2[C@H]3CC[C@H](C3)[C@H]2C1=O [Compound A-20] | 0% | 20% | 30% | 70% | 10% | 50% | 50% | 60% |
| CCc1ccc(Oc2ccc(Cl)cc2Cl)cc1C1=C(O)[C@H]2[C@H]3CC[C@H](C3)[C@H]2C1=O [Compound A-21] | 0% | 20% | 40% | 70% | 0% | 30% | 20% | 40% |
| CCc1ccc(Oc2ccc(Br)cc2)cc1C1=C(O)[C@H]2[C@H]3CC[C@H](C3)[C@H]2C1=O [Compound A-22] | 80% | 40% | 50% | 100% | 30% | 80% | 40% | 90% |
| CCc1ccc(Oc2ccc(F)cc2)cc1C1=C(O)[C@H]2[C@H]3CC[C@H](C3)[C@H]2C1=O [Compound A-23] | 0% | 20% | 50% | 60% | 0% | 30% | 0% | 80% |
| CCc1ccc(Oc2ccc(Cl)cc2)cc1C1=C(O)[C@H]2[C@H]3CC[C@H](C3)[C@H]2C1=O [Compound A-24] | 70% | 60% | 60% | 100% | 30% | 40% | 10% | 50% |
| CCc1ccc(Oc2ccc(Cl)cc2F)cc1C1=C(O)[C@H]2[C@H]3CC[C@H](C3)[C@H]2C1=O [Compound A-25] | 40% | 60% | 50% | 90% | 30% | 70% | 20% | 70% |
| CCc1ccc(Oc2ccc(Cl)c(F)c2)cc1C1=C(O)[C@H]2[C@H]3CC[C@H](C3)[C@H]2C1=O [Compound A-26] | 80% | 30% | 60% | 80% | 0% | 20% | 0% | 80% |
| CCc1ccc(Oc2ccc(Br)cc2F)cc1C1=C(O)[C@H]2[C@H]3CC[C@H](C3)[C@H]2C1=O [Compound A-27] | 70% | 80% | 60% | 80% | 0% | 40% | 20% | 60% |
| CCc1ccc(Oc2ccc(Br)cc2Cl)cc1C1=C(O)C2C(C1=O)[C@H]1CC[C@@H]2CC1 (stereo partly drawn) [Compound A-28] | 0% | 0% | 0% | 80% | 0% | 0% | 0% | 20% |
| CCc1ccc(Oc2ccc(Cl)cc2Cl)cc1C1=C(O)C2C(C1=O)[C@H]1CC[C@@H]2CC1 (stereo partly drawn) [Compound A-29] | 0% | 0% | 60% | 100% | 0% | 0% | 0% | 50% |
| CCc1ccc(Oc2ccc(F)cc2)cc1C1=C(O)C2C(C1=O)[C@H]1CC[C@@H]2CC1 (stereo partly drawn) [Compound A-30] | 20% | 10% | 60% | 100% | 20% | 70% | 30% | 80% |
| CCc1ccc(Oc2ccc(Cl)cc2)cc1C1=C(O)C2C(C1=O)[C@H]1CC[C@@H]2CC1 (stereo partly drawn) [Compound A-31] | 80% | 40% | 100% | 100% | 0% | 50% | 20% | 90% |
| CCc1ccc(Oc2ccc(Cl)cc2F)cc1C1=C(O)C2C(C1=O)[C@H]1CC[C@@H]2CC1 (stereo partly drawn) [Compound A-32] | 90% | 30% | 90% | 100% | 0% | 40% | 0% | 60% |
| CCc1ccc(Oc2ccc(Cl)c(F)c2)cc1C1=C(O)C2C(C1=O)[C@H]1CC[C@@H]2CC1 (stereo partly drawn) [Compound A-33] | 90% | 0% | 90% | 100% | 0% | 50% | 20% | 50% |
| CCc1ccc(Oc2ccc(Br)cc2F)cc1C1=C(O)C2C(C1=O)[C@H]1CC[C@@H]2CC1 (stereo partly drawn) [Compound A-34] | 90% | 40% | 80% | 90% | 30% | 50% | 20% | 70% |
| CCc1ccc(Oc2ccc(Br)cc2Cl)cc1C1=C(O)CCC1=O [Compound A-35] | 20% | 20% | 10% | 30% | 10% | 60% | 30% | 20% |
| CCc1ccc(Oc2ccc(Br)cc2)cc1C1=C(O)CCC1=O [Compound A-37] | 20% | 30% | 20% | 80% | 0% | 10% | 10% | 20% |
| CCc1ccc(Oc2ccc(Cl)cc2)cc1C1=C(O)CCC1=O [Compound A-39] | 0% | 10% | 10% | 60% | 30% | 0% | 20% | 40% |
| CCc1ccc(Oc2ccc(Cl)cc2F)cc1C1=C(O)CCC1=O [Compound A-40] | 10% | 10% | 10% | 30% | 0% | 10% | 0% | 40% |
| CCc1ccc(Oc2ccc(Cl)c(F)c2)cc1C1=C(O)CCC1=O [Compound A-41] | 10% | 20% | 0% | 70% | 0% | 0% | 0% | 30% |
| CCc1ccc(Oc2ccc(Br)cc2F)cc1C1=C(O)CCC1=O [Compound A-42] | 0% | 10% | 0% | 70% | 0% | 0% | 0% | 30% |
